melting point [°C]	SMILES
232 to 234	O=C(O)c1ccc(-c2ccccn2)cc1
72 to 75	CC=CCn1c(C)c(C)c2cnnc(OCc3cccs3)c21
210	CNC(=O)c1c(N)n(C2CCCC2)c2nc(C#CC(C)(O)CO)ccc2c1=O (centres undefined)
80 to 83	COc1ccc2c(c1)C(CC(=O)O)CCO2 (centres undefined)
224 to 225	NC(=O)c1cc(-c2ccc(Cl)cc2)on1
72 to 74	CC(C)(O)C(C)(O)Cc1ccccc1 (centres undefined)
93 to 94	CCOC(=O)/C(=C\Nc1cc(C)cc(C)c1)c1ccc(OC)cc1
120 to 121	O=C(O)C(=NOCc1ccccc1)c1csc2ccccc12
83 to 85	CCCCc1nn(-c2ccccc2C(F)(F)F)c(=O)n1Cc1ccc(-c2ccccc2S(=O)(=O)NC(=O)OC(C)(C)C)cc1F
65 to 68	COC(=O)C(C)Oc1cc(C)ccc1C=O (centres undefined)
134 to 137	Nc1nc(NCC(c2ccccc2)c2ccccc2)c2ncn(C3OC(CO)C(O)C3O)c2n1 (centres undefined)
52.5 to 53	COc1cc(C)nc(-n2cccn2)n1
89 to 93	CN(C)C(=S)Oc1ccc(CCCCN)cc1
124 to 127	CSc1ccc(CN(C2CCOCC2)S(=O)(=O)c2ccc(Cl)cc2)cc1
145 to 147	CC(C)CCS(=O)(=O)NC(=O)/C=C/c1cc(C2CC2)nn1Cc1ccc(C(F)(F)F)cc1Cl
289 to 290	O=C(Cc1ccccc1)Nc1n[nH]c(-c2ccc(F)cc2)c1-c1ccncc1
30 to 32	C=C(C)C(=O)NCC(OC)OC
170	CCC1c2nc[nH]c2CCN1C(=O)NC(C)C (centres undefined)
187 to 188	COc1cc(-c2ccc(O)c(C3(C)CCCCC3)c2)cc(CC2SC(N(C)C)=NC2=O)c1OC (centres undefined)
159 to 160	COC(=O)C(=NO)C(=O)N1CCC(c2ccc(OC)c(OC3CCCC3)c2)CC1
158	N#Cc1nn(-c2c(Cl)cc(Cl)cc2Cl)cc1C1CC1(Cl)Cl (centres undefined)
143 to 146	CCCCc1ncc(/C=C2\C(=O)NC(=O)N2CCC(C)C)n1Cc1ccc(C(=O)O)cc1
209 to 210	CC(=O)NC1CCc2c([nH]c3ccc(F)cc23)C1 (centres undefined)
190	O=C(CCC#Cc1ccccn1)Nc1ccc(F)cc1

melting point [°C]	SMILES
166 to 169	Cc1noc(NS(=O)(=O)c2cccc(Cl)c2Cl)c1Br
245 to 246	CC1CC(=O)NN=C1c1ccc(NC(=O)OC2CCC2)cc1 (centres undefined)
117 to 118	CC(C)[C@H]1C[C@@H]([C@H](CC2CCCCC2)NC(=O)OCc2ccccc2)OC1=O
177 to 178	Cc1nc2c(N)nc3c(c2n1CCCCS(=O)(=O)C(C)C)CCCC3
112 to 113	CC(C)c1nc(C(C)(C)C)cc(-c2ccc(F)cc2)c1CO
130 to 132	O=C(O)COc1cccc2c1CCC(Cc1nc(C(c3ccccc3)c3ccccc3)co1)C2 (centres undefined)
204 to 206	Nc1c(Br)cc(Nc2ncnc3cnc(N4CCC(N)CC4)nc23)cc1Br
177 to 178	O=C(c1sc(Nc2ccccc2)c2c1CCc1cnoc1-2)N1CCOCC1
238 to 240	CN1C(=O)CC(C(=O)Nc2nccs2)C(=O)c2ccc(Cl)cc21 (centres undefined)
88 to 89	COc1cc(Oc2ccc(Cl)cc2)ccc1[N+](=O)[O-]
173 to 174	COc1ccc(OC)c2c1C[C@](O)(CC#N)CC21SCCS1
116 to 118	CC(=O)Nc1ccc2c(c1)C(C)(C)CCC2(C)C
259 to 260	Cc1ncc2cc(-c3ccccc3Cl)c(N)nc2n1
140 to 141	COC(=O)CNC(=O)c1cc(Cl)nc(Cl)c1
100 to 102	COc1ccc(C2(C#N)CCC(C(N)=O)CC2)cc1OC1CCCC1 (centres undefined)
156 to 160	CC(NC(=O)Nc1ccc(CN2C(=O)C3CCCC3N(C(=O)CN3C(=O)c4ccccc4C3=O)c3ccccc32)cc1)c1ccccc1 (centres undefined)
124	CCOC(=O)c1ccc(NS(C)(=O)=O)c([N+](=O)[O-])c1
130 to 132	COc1ccc(CCC(O)=S)cc1[N+](=O)[O-]
167 to 168	COc1cc(C(=O)N2CCNC(C(=O)N(C)C)C2)cc(OC)c1OC (centres undefined)
215 to 218	O=C(N[C@H]1CCN(C(=O)c2cc(C(F)(F)F)cc(C(F)(F)F)c2)[C@H](Cc2ccc(Cl)cc2)C1)c1cc(=O)c2cc(F)ccc2o1
156 to 159	CCCCCN1C(=O)C(CCC(=O)OCC)(NC(=O)c2ccc3ccccc3c2)c2ccc(OC)cc21 (centres undefined)
131 to 132	Fc1ccc(-c2ncn(C3CCNCC3)c2-c2ccnc(Oc3ccc4c(c3)OCO4)n2)cc1
246 to 247	CN(C)CCNC1=CC(=O)c2nc(-c3ccc(F)cc3)sc2C1=O
227 to 229	COc1cc2ncc(C#N)c(Nc3ccc(Cl)cc3C)c2cc1OC

melting point [°C]	SMILES
210 to 212	CC1Nc2ccc(S(=O)(=O)N(C)C)cc2S(=O)(=O)N1 (centres undefined)
88 to 89	CS(=O)(=O)OCCc1cc([N+](=O)[O-])ccc1COS(C)(=O)=O
116 to 118	OCC1CCCN(c2nc(-c3ccccc3)nc3ccccc23)C1 (centres undefined)
205 to 208	O=C(Nc1ccc(-c2cnc(-c3cccc(NC(=O)c4ccccn4)c3)[nH]2)cc1)c1ccccn1
135 to 140	CSc1cc(C(=O)O)cc(C(F)(F)F)c1
280 to 281	O=C(CCl)Nc1cccc2c1C(=O)c1c(NC(=O)CCl)cccc1C2=O
183	CCOC(=O)C1=C(COCC(C)(O)c2ncc[nH]2)NC(C)=C(C(=O)OC)C1c1cccc(Cl)c1Cl (centres undefined)
118 to 119	CC1(c2ccccc2)SC(=S)N(Nc2ccccc2)C1=N (centres undefined)
82 to 84	CCSc1cc(S(N)(=O)=O)sc1SCC
151 to 152	N#Cc1ccc(C(=O)CC2(O)OCCO2)cc1
114 to 117	N#CCc1cc(Cl)cc(Cc2nc3c(F)c(F)cc(F)c3s2)c1
140 to 141	COc1ccc(Cc2cnc(NCCc3ccccc3Cl)nc2N2CCc3cc(OC)c(OC)cc3C2)cc1OC
162 to 163	COCC(=O)N[C@@H]1c2cc(C#N)ccc2OC(C)(C)[C@H]1O (relative stereo)
161 to 163	CCOC(=O)C1=C(C)NC(=S)N(S(C)(=O)=O)C1c1cccc([N+](=O)[O-])c1 (centres undefined)
72 to 73	C[C@@H]1Cc2cc(N3C[C@H](COS(C)(=O)=O)OC3=O)ccc2N1C(=O)OCc1ccccc1
139 to 140	CC(C)(N)c1ccc(-c2nc(Nc3ccc(-n4ccnn4)cc3)ncc2C#N)cc1
242 to 243	COc1cc2c(cc1OC(C)C)-c1c(-c3cccs3)c3c(n1CC2)C(=O)N(C(C)C)CCNC3
133 to 135	CC1Nc2cc(Br)ccc2NC1=O (centres undefined)
158 to 161	COC(=O)c1ccc(NC2CC2)c(S(N)(=O)=O)c1
85 to 87	Nc1c(F)cc(I)cc1Cl
133 to 137	CC(O)c1cc(S(N)(=O)=O)sc1Sc1ccc(O)cc1 (centres undefined)
172 to 173	COc1cc2c(cc1O)CCN(C(=O)c1cc(OC)c(OC)c(OC)c1)C2
162 to 163	CC(C)c1nc(CN2C(=O)C3(COc4cc5c(cc43)OCO5)c3cccc(C#N)c32)cs1 (centres undefined)
230	CC1(c2ccc(S(C)(=O)=O)cc2)OC=C(Br)C(=O)C1Oc1ccc(F)cc1F (centres undefined)

melting point [°C]	SMILES
162 to 164	COc1cc(O)c2c(=O)c3ccccc3n(C)c2c1
160	Cc1cccc(NC(=O)NCC(=O)N(CC(=O)OC(C)(C)C)c2ccccc2C(=O)N2CCCc3ccccc32)c1
163 to 165	COc1nc(-n2ncc(C#N)c2N)c(C(F)(F)F)cc1Cl
103 to 105	CC(C)NS(=O)(=O)c1ccc(N2CCC(=O)CC2)cc1
166 to 168	CCCc1cc(=O)oc2cc(OC(=O)CC)cc(O)c12
> 210	COc1ccc(CNC(=O)c2cn3c(=O)n(Cc4ccc(C(=O)O)cc4)c(=O)c(C)c3s2)cc1
259 to 261	CN=C(NC#N)C1=CC(CF)(CF)Oc2ccc([N+](=O)[O-])cc21
238 to 240	COc1ccccc1C=Cc1nc2c(c(=O)n(C)c(=O)n2C)n1C
130 to 134	Cc1cc(Nc2cccc(C(F)(F)F)c2)nc(-n2nc(C)cc2C)n1
77 to 80	COc1ccc(C(=O)N(C)CC(O)COc2cccc3[nH]c4ccccc4c23)cc1OC (centres undefined)
199 to 201	CN1CCN(c2cccc(-n3cnc4cc(C=O)ccc43)c2)CC1
> 300	O=C(Nc1ccccc1)Nc1nc(C=C2SC(=O)NC2=O)cs1
248 to 250	O=C(O)c1cc2ccc3[nH]ccc3c2[nH]1
297 to 299	Cc1ccc(NC(=O)c2ccc(C#N)cc2)cc1NC(=O)c1ccc(O)cc1
240 to 241	COC(=O)[C@]1(C)Cc2c([nH]c3ccc(Br)cc23)[C@@H](c2cccc(O)c2)N1 (racemic)
117 to 120	O=Cc1ccccc1-c1nc2ccccc2o1
295	COc1ccc(-c2ccc3cnc(Nc4cc5c(cc4F)CCC(=O)N5)nn23)cn1
134	COc1ccc(C=CC(=O)c2c(OC)cc(OC)cc2OC(=O)c2ccccc2)cc1
278 to 279	Cc1nc(N)c2nc(C)n(Cc3cc(-c4ccc(F)cc4)no3)c2c1C
99.5 to 100	COC(=O)CC[C@@H](CF)NC(=O)c1ccccc1
337 to 340	O=C(O)c1cc(F)c(F)cc1NC(=O)c1cc(-c2ccc(Cl)cc2)oc1C(F)(F)F
64 to 65	CCOC(=O)C(OCc1ccccc1)C(=O)c1cc(Cl)ccc1OCc1ccccc1 (centres undefined)
197 to 198	CS(=O)(=O)Nc1ccc(C(=O)CN2CCN(c3cccnc3)CC2)cc1
102 to 103	COc1ccc(C(C#N)Cc2cc(OC)c(OC)c(OC)c2)cc1 (centres undefined)

SMILES	melting point [°C]
CC(=O)c1cccnc1CN1C(=O)C(NC(=O)Nc2cccc(C)c2)N=C(c2ccccc2F)c2ccccc21 (racemic)	218 to 222
CNC(=O)Nc1ccc2c(c1)C(CN1CCC(n3ccc4cc(Cl)ccc43)CC1)CC2 (centres undefined)	193 to 195
CC1(C)N=C(c2ccccc2Cl)c2cc([N+](=O)[O-])ccc2N(CCO)C1=O	192 to 194

Reference: a melting point compilation (Tetko et al.; mined from patent text by program, amines drawn as free bases though some values may be those of a salt)
